Reference: patent publication US11014895B2, “Heterocyclic urea compound, and drug composition and application thereof” (CHINA PHARMACEUTICAL UNIVERSITY, priority 2017, dated 2021)

Key:
IDO1 enzyme = IDO1 enzyme (Homo sapiens, UniProt P14902); test: Determination of biochemical activity of IDO1 enzyme (absorbance at 320 nm); conditions: room temperature, 3 hours
How it was run: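 Enzyme and compound were reacted in sodium hydrogen phosphate buffer (pH 7-8) for 3 hours at room temperature. Absorbance at 320 nm gave inhibition rate, and IC50 was calculated from it.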

[1] = target: T1, IDO1 enzyme in the Hela cell (Homo sapiens, UniProt P14902); test: Cell activity: interferon γ-stimulated Hela cells, absorbance of supernatant at 480 nm; format: cell-based; conditions: interferon γ 100 ng/ml, 72 hours
T1 construct: endogenous in cells; host or cells: HeLa cells stimulated with interferon γ (100 ng/ml)
T1 sequence (P14902 whole entry): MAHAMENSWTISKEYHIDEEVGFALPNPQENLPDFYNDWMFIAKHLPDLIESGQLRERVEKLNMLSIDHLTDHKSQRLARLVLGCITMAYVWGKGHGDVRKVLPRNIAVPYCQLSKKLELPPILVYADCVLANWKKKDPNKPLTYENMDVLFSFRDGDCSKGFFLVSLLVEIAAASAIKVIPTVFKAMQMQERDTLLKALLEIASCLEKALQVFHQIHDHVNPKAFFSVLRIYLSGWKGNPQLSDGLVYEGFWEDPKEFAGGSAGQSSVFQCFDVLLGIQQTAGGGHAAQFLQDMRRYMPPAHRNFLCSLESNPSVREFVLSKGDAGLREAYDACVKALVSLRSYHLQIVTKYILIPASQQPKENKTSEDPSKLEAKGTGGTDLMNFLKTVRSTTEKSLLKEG
How it was run: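 HeLa cells treated with compound plus interferon γ (100 ng/ml final) and cultured 72 h at 37 °C. Supernatant treated with trichloroacetic acid 30 min at 50 °C, centrifuged, then mixed with 2% dimethylaminobenzaldehyde in acetic acid; absorbance read at 480 nm.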

IDO1 enzyme, sequence (P14902 whole entry): as above

Compound: COc1cccc(NC(=O)Nc2cocc2/C(=N/O)Nc2ccc(F)c(Br)c2)c1 [Embodiment 59, (Z)-1-(4-(N-(3-bromo-4-fluorophenyl)-N′-hydroxyaminoiminomethyl)-furan-3-substituted)-3-(3-methoxyphenyl)urea]
- IC50 (IDO1 enzyme): > 1 µM
- IC50 [1]: > 1 µM

Compound: Cc1ccc(NC(=O)Nc2nonc2/C(=N/O)Nc2ccc(F)c(Br)c2)cc1 [Embodiment 4]
- IC50 (IDO1 enzyme): > 1 µM
- IC50 [1]: > 1 µM

Compound: O=C(Nc1nonc1/C(=N/O)Nc1ccc(F)c(Br)c1)NC1CCCC1 [Embodiment 8, (Z)-1-(4-(N-(3-bromo-4-fluorophenyl)-N′-hydroxyaminoiminomethyl)-1,2,5-oxadiazole-3-substituted)-3-cyclopentylurea]
- IC50 (IDO1 enzyme): 0.1 to 1 µM
- IC50 [1]: 0.1 to 1 µM

Compound: O=C(Nc1ccsc1)Nc1cocc1/C(=N/O)Nc1ccc(F)c(Br)c1 [Embodiment 78]
- IC50 (IDO1 enzyme): > 1 µM
- IC50 [1]: > 1 µM

Compound: O=C(Nc1nocc1/C(=N/O)Nc1ccc(F)c(Br)c1)Nc1c[nH]c2ccccc12 [Embodiment 95, (Z)-1-(4-(N-(3-bromo-4-fluorophenyl)-N′-hydroxyaminoiminomethyl)-isoxazole-3-substituted)-3-(3-aminoindole)urea]
- IC50 (IDO1 enzyme): 0.1 to 1 µM
- IC50 [1]: 0.1 to 1 µM

Compound: COc1ccc(NC(=O)Nc2conc2/C(=N/O)Nc2ccc(F)c(Br)c2)cc1 [Embodiment 100, (Z)-1-(4-(N-(3-bromo-4-fluorophenyl)-N′-hydroxyaminoiminomethyl)-isoxazole-3-substituted)-4-(4-methoxyphenyl)urea]
- IC50 (IDO1 enzyme): 0.1 to 1 µM
- IC50 [1]: 0.1 to 1 µM

Compound: O=C(Nc1nonc1/C(=N/O)Nc1ccc(F)c(Br)c1)NC1CC1 [Embodiment 32, (Z)-1-(4-(N-(3-bromo-4-fluorophenyl)-N′-hydroxyaminoiminomethyl)-1,2,5-oxadiazole-3-substituted)-3-cyclopropylurea]
- IC50 (IDO1 enzyme): 0.1 to 1 µM
- IC50 [1]: 0.1 to 1 µM

Compound: NCCCNC(=O)Nc1nonc1/C(=N/O)Nc1ccc(F)c(Br)c1 [Embodiment 14, (Z)-1-(4-(N-(3-bromo-4-fluorophenyl)-N′-hydroxyaminoiminomethyl)-1,2,5-oxadiazole-3-substituted)-3-(3-aminopropane)urea]
- IC50 (IDO1 enzyme): < 0.001 µM
- IC50 [1]: < 0.001 µM

Compound: O=C(Nc1cccnc1)Nc1cocc1/C(=N/O)Nc1ccc(F)c(Br)c1 [Embodiment 75, (Z)-1-(4-(N-(3-bromo-4-fluorophenyl)-N′-hydroxyaminoiminomethyl)-furan-3-substituted)-3-(3-aminopyridine)urea]
- IC50 (IDO1 enzyme): 0.1 to 1 µM
- IC50 [1]: 0.1 to 1 µM

Compound: O/N=C(\Nc1ccc(F)c(Br)c1)c1nonc1NC(=S)Nc1ccccc1 [Embodiment 116, (Z)-1-(4-(N-(4-bromo-3-fluorophenyl)-N′-hydroxyaminoiminomethyl)-1,2,5-oxadiazole-3-substituted)-3-phenylthiourea]
- IC50 (IDO1 enzyme): 0.1 to 1 µM
- IC50 [1]: 0.1 to 1 µM

Compound: O=C(Nc1nonc1/C(=N/O)Nc1ccc(F)c(Br)c1)NC1CCNCC1 [Embodiment 11, (Z)-1-(4-(N-(3-bromo-4-fluorophenyl)-N′-hydroxyaminoiminomethyl)-1,2,5-oxadiazole-3-substituted)-3-(piperidine-4-substituted)urea]
- IC50 (IDO1 enzyme): < 0.001 µM
- IC50 [1]: < 0.001 µM

Compound: COc1ccc(NC(=O)Nc2nonc2/C(=N/O)Nc2ccc(F)c(Br)c2)cc1 [Embodiment 1, (Z)-1-(4-(N-(3-bromo-4-fluorophenyl)-N′-hydroxyaminoiminomethyl)-1,2,5-oxadiazole-3-substituted)-3-(4-methoxyphenyl)urea]
- IC50 (IDO1 enzyme): 0.1 to 1 µM
- IC50 [1]: 0.1 to 1 µM

Compound: COc1ccc(NC(=S)Nc2nocc2/C(=N/O)Nc2ccc(F)c(Br)c2)cc1 [Embodiment 133, (Z)-1-(4-(N-(3-bromo-4-fluorophenyl)-N′-hydroxyaminoiminomethyl)-isoxazole-3-substituted)-3-(4-methoxyphenyl)thiourea]
- IC50 (IDO1 enzyme): 0.1 to 1 µM
- IC50 [1]: 0.1 to 1 µM

Compound: COc1ccc(NC(=S)Nc2cocc2/C(=N/O)Nc2ccc(F)c(Br)c2)cc1 [Embodiment 136, (Z)-1-(4-(N-(3-bromo-4-fluorophenyl)-N′-hydroxyaminoiminomethyl)-furan-3-substituted)-3-(4-methoxyphenyl)thiourea]
- IC50 (IDO1 enzyme): > 1 µM
- IC50 [1]: > 1 µM

Compound: CS(=O)(=O)N1CCC(NC(=O)Nc2nonc2/C(=N/O)Nc2ccc(F)c(Br)c2)CC1 [Embodiment 12, (Z)-1-(4-(N-(3-bromo-4-fluorophenyl)-N′-hydroxyaminoiminomethyl)-1,2,5-oxadiazole-3-substituted)-3-(1(methsulfonyl)piperidine-4-substituted)urea]
- IC50 (IDO1 enzyme): 0.1 to 1 µM
- IC50 [1]: 0.1 to 1 µM

Compound: O=C(Nc1nonc1/C(=N/O)Nc1ccc(F)c(Br)c1)N1CCNCC1 [Embodiment 48, (Z)-1-(4-(N-(3-bromo-4-fluorophenyl)-N′-hydroxyaminoiminomethyl)-1,2,5-oxadiazole-3-substituted)piperazine-1-carbamide]
- IC50 (IDO1 enzyme): 0.1 to 1 µM
- IC50 [1]: 0.1 to 1 µM

Compound: N=C(Nc1nonc1/C(=N/O)Nc1ccc(F)c(Br)c1)NC1CCNCC1 [Embodiment 148, (Z)-1-(4-(N-(3-bromo-4-fluorophenyl)-N′-hydroxyaminoiminomethyl)-1,2,5-oxadiazole-3-substituted)-3-(piperidine-4-substituted)guanidine]
- IC50 (IDO1 enzyme): < 0.001 µM
- IC50 [1]: < 0.001 µM

Compound: NC1CCC(NC(=O)Nc2nonc2/C(=N/O)Nc2ccc(F)c(Cl)c2)CC1 (stereo not drawn) [Embodiment 26]
- IC50 (IDO1 enzyme): < 0.001 µM
- IC50 [1]: < 0.001 µM

Compound: CS(=O)(=O)NCCNC(=O)Nc1nocc1/C(=N/O)Nc1ccc(F)c(Br)c1 [Embodiment 93, (Z)-1-(4-(N-(3-bromo-4-fluorophenyl)-N′-hydroxyaminoiminomethyl)-isoxazole-3-substituted)-3-(2-methamidoethyl)urea]
- IC50 (IDO1 enzyme): < 0.001 µM
- IC50 [1]: < 0.001 µM

Compound: N=C(Nc1ccc(N)cc1)Nc1nonc1/C(=N/O)Nc1ccc(F)c(Br)c1 [Embodiment 142, (Z)-1-(4-(N-(3-bromo-4-fluorophenyl)-N′-hydroxyaminoiminomethyl)-1,2,5-oxadiazole-3-substituted)-3-(4-aminophenyl)guanidine]
- IC50 (IDO1 enzyme): < 0.001 µM
- IC50 [1]: < 0.001 µM

Compound: O=C(Nc1cocc1/C(=N/O)Nc1ccc(F)c(Br)c1)Nc1cccc2[nH]ccc12 [Embodiment 73, (Z)-1-(4-(N-(3-bromo-4-fluorophenyl)-N′-hydroxyaminoiminomethyl)-furan-3-substituted)-3-(4-aminoindole)urea]
- IC50 (IDO1 enzyme): 0.1 to 1 µM
- IC50 [1]: 0.1 to 1 µM

Compound: COc1ccc(NC(=N)Nc2nonc2/C(=N/O)Nc2ccc(F)c(Br)c2)cc1 [Embodiment 139, (Z)-1-(4-(N-(3-bromo-4-fluorophenyl)-N′-hydroxyaminoiminomethyl)-1,2,5-oxadiazole-3-substituted)-3-(4-methoxyphenyl)guanidine]
- IC50 (IDO1 enzyme): < 0.001 µM
- IC50 [1]: < 0.001 µM

Compound: O/N=C(\Nc1ccc(F)c(Cl)c1)c1nocc1NC(=S)Nc1ccccc1 [Embodiment 131, (Z)-1-(4-(N-(3-chloro-4-fluorophenyl)-N′-hydroxyaminoiminomethyl)-isoxazole-3-substituted)-4-(phenyl)thiourea]
- IC50 (IDO1 enzyme): 0.1 to 1 µM
- IC50 [1]: 0.1 to 1 µM

Compound: O=C(Nc1nonc1/C(=N/O)Nc1ccc(F)c(Br)c1)Nc1cccc2cc[nH]c12 [Embodiment 36, (Z)-1-(4-(N-(3-bromo-4-fluorophenyl)-N′-hydroxyaminoiminomethyl)-1,2,5-oxadiazole-3-substituted)-3-(1H-indole-7-substituted)urea]
- IC50 (IDO1 enzyme): 0.1 to 1 µM
- IC50 [1]: 0.1 to 1 µM
